# Assay results as given in patent US20100292175A1, “USE OF HYDROXYFLAVAN DERIVATIVES FOR TASTE MODIFICATION” (Leibniz-Institut fur Pflanzenbiochemie, priority 2009, published 2010).
# Columns and labels:
# Assay type in all cases: in vivo
# [1] = Bitter reduction of a bitter substance solution (caffeine), panel of experts; conditions: for Bitter sensation (1-10) Sample (caffeine + substance): grading 1 [not bitter] to 10 [extremely bitter]
# Description: To quantify the reduction (i.e. the masking or reduction) of the bitter sensation in a sample, the bitterness of a solution containing 500 ppm of caffeine was compared by a panel of experts in each case with a sample which contained 500 ppm of caffeine and additionally 50 ppm or 100 ppm of a substance to be assessed (in respect of the bitter-reduction ability) (grading: 1 [not bitter] to 10 [extremely bitter]).
# For the evaluation, i.e. the calculation of the reduction (in %) of the bitter sensation, the mean values of the assessments by the panel of experts of the caffeine solution and the sample, to be compared, containing caffeine and a substance to be assessed were used in each case. In this respect, 2,4-dihydroxybenzoic acid (2,4-DHB) was used as the comparison (reference) according to U.S. Pat. No. 5,643,941.
# [2] = Comparative Test 2: sucrose equivalence in a 5% sucrose solution, panel of experts; conditions: for Sucrose equivalence in a 5% sucrose solution, Calculation (5 + x) %: purely additive calculation; for synergy or synergistic additional effect: determined vs calculated sucrose equivalence
# Procedure: (§1) The panelists were asked to test each solution of compound 2 in water against the sucrose series and to grade them according to their degree of sweetness (sucrose equivalent). It was possible to determine the inherent sweetness of compound 2 for the above-mentioned concentrations from the results provided by the panelists. In addition to the sucrose equivalence in water (i.e. without sucrose), the sucrose equivalence in a 5% sucrose solution was also determined.
# It was possible to establish a clear synergistic sweetness enhancement even at a low concentration, not sweet per se, of approximately 25 ppm of compound 2 (from Example 1). From a purely calculational point of view, it was to be expected that a 5% sucrose solution (i.e. a sucrose solution which corresponds in sensory manner by definition to 5% sucrose equivalents) which contains 25 ppm or 50 ppm of compound 2 (from Example 1) produced a sweetness of approximately 5.84 or 6.45 sucrose equivalents by a purely additive effect of the inherent sweetness of compound 2 (see the determined sucrose equivalence in water). However, the sensory assessment of such a 5% sucrose solution with 25 ppm or 50 ppm of compound 2 (from Example 1) by the panelists produced an averaged sucrose equivalence of 6.8% or 8.2%. Considering the values to be expected from a purely calculational point of view, this corresponds to a synergy or a synergistic additional effect of approximately 17% or 27%.
# [3] = Enhancement of the sweet sensation of a sugar solution, Comparative Test 1, panel of experts; conditions: for Sweet sensation (1-10) Sample (sucrose + substance): grading 1 [not sweet] to 10 [extremely sweet]; for synergistic enhancement of the sweet taste of a sweet-tasting substance: according to our own experiments
# Description: To quantify the enhancement of the sweet sensation, the sweetness of a 5% sucrose solution was compared by a panel of experts in each case with a sample which contained 5% of sucrose as well as 50 ppm or 100 ppm of a compound of formula (I) to be used according to the invention (grading: 1 [not sweet] to 10 [extremely sweet]).
# For the evaluation, i.e. the calculation of the enhancement (in %) of the sweet sensation, the mean values of the assessments by the panel of experts of the sucrose solution and the sample, to be compared, containing sucrose and a compound of formula (I) were used in each case.
# [4] = Comparative Test 2: inherent sweetness (sucrose equivalence) in water, panel of experts
# Procedure: The inherent sweetness of compound 2 from Example 1, which was dissolved in water in a pure form in different concentrations (0.0025 or 0.0050% by weight in water) was determined by a panel of experts (panelists) using a series of comparisons of different sucrose concentrations in water (0; 0.25; 0.5; 0.75; 1; 1.5; 2; 3; 4 and 5% by weight sucrose in water).
# as §1
# [5] = 50 ppm substance + 500 ppm caffeine vs 500 ppm caffeine solution
# [6] = 50 ppm substance + 500 ppm caffeine
# [7] = 50 ppm substance + 5% sucrose vs 5% sucrose solution
SMILES,"Reduction of the bitter sensation [1, 5] [%]","Bitter sensation (1-10) Sample (caffeine + substance) [1, 6]","Enhancement of the sweet sensation [3, 7] [%]",Sweet sensation (1-10) Sample (sucrose + substance) ([3]; 50 ppm substance + 5% sucrose),further results
"COc1ccc(C2CCc3ccc(O)cc3O2)cc1O (racemic) [compound 2, 3′,7-dihydroxy-4′-methoxyflavan]",27,3.9 ± 1.9,57,8.1 ± 1.3,"Sucrose equivalence in a 5% sucrose solution, Determination ([2]; 0.0025 % by weight (25 ppm) in 5% sucrose solution): 6.8%; Sucrose equivalence in a 5% sucrose solution, Calculation (5 + x) % ([2]; 0.0025 % by weight): 5.84%; Sucrose equivalence in a 5% sucrose solution, Determination ([2]; 0.0050 % by weight (50 ppm) in 5% sucrose solution): 8.2%; Sucrose equivalence in a 5% sucrose solution, Calculation (5 + x) % ([2]; 0.0050 % by weight): 6.45%; sweetness to be expected by a purely additive effect of the inherent sweetness ([2]; 25 ppm in 5% sucrose solution): approximately 5.84 sucrose equivalents; synergy or synergistic additional effect ([2]; 25 ppm in 5% sucrose solution): approximately 17%; sweetness to be expected by a purely additive effect of the inherent sweetness ([2]; 50 ppm in 5% sucrose solution): ~6.45 sucrose equivalents; synergy or synergistic additional effect ([2]; 50 ppm in 5% sucrose solution): ~27%; synergistic enhancement of the sweet taste of a sweet-tasting substance [3]: particularly strong synergistic enhancement; Determination of the sucrose equivalence in water (without sucrose) ([4]; 0.0025 % by weight in water): 0.84%; Determination of the sucrose equivalence in water (without sucrose) ([4]; 0.0050 % by weight in water): 1.45%"
"O=C(O)c1ccc(O)cc1O [2,4-DHB, 2,4-dihydroxybenzoic acid, reference compound]",,,,,Reduction of the bitter sensation ([1]; 100 ppm substance + 500 ppm caffeine vs 500 ppm caffeine solution): 3%; Bitter sensation (1-10) Sample (caffeine + substance) ([1]; 100 ppm substance + 500 ppm caffeine): 5.0 ± 1.0
"Oc1ccc(C2CCc3ccc(O)cc3O2)cc1 (stereo not shown) [compound 1, 4′,7-dihydroxyflavan]",,,,,Enhancement of the sweet sensation ([3]; 100 ppm substance + 5% sucrose vs 5% sucrose solution): 21%; Sweet sensation (1-10) Sample (sucrose + substance) ([3]; 100 ppm substance + 5% sucrose): 6.2 ± 1.5; synergistic enhancement of the sweet taste of a sweet-tasting substance [3]: particularly strong synergistic enhancement
"COc1cc(C2CCc3ccc(O)cc3O2)ccc1O (stereo not shown) [compound 3, 4′,7-dihydroxy-3″-methoxyflavan]",15,4.1 ± 1.4,,,
"Oc1ccc(C2CCc3c(O)cc(O)cc3O2)cc1 (stereo not shown) [compound 14, 4′,5,7-trihydroxyflavan]",26,3.8 ± 1.9,,,
"COc1ccc(C2CCc3c(O)cc(O)cc3O2)cc1O (stereo not shown) [compound 15, 3′,5,7-trihydroxy-4′-methoxyflavan]",15,3.8 ± 1.5,21,5.8 ± 1.6,
"COc1cc(C2CCc3c(O)cc(O)cc3O2)ccc1O (stereo not shown) [compound 16, 4′,5,7-trihydroxy-3′-methoxyflavan]",5,4.1 ± 2.0,,,
"COc1ccc([C@@H]2CCc3ccc(O)cc3O2)cc1O [compound S-2, (2S)-3′,7-dihydroxy-4″-methoxyflavan]",16,3.9 ± 1.5,36,7.8 ± 1.7,
